Experimental data taken from article PMC8615647, “Structural Rearrangements of a Dodecameric Ketol-Acid Reductoisomerase Isolated from a Marine Thermophilic Methanogen” (Biomolecules, 2021).

B1: Ketol-acid reductoisomerase from Methanothermococcus thermolithotrophicus (enzyme, UniProt A0A8X6EH16 1-330, looked up)
chain: MMKVFYDSDTTFDAVKDKTIAVIGYGSQGRAQSLNMKDSGLKVVVGLRPNGASWNKAKEDGHEVLSIEEAAEKADIIHILIPDEIQGDVYNKQIKPYLKEGKTLSFSHGYNIHYGYIVPPEGVNVVMVAPKSPGAMVRRTYEEGFGVPGLVCVEKDATGDALDIALGMAKGVGLTRAGVIQTTFREETETDLFGEQAVLCGGVTELIKAGFETLVEAGYSPEMAYFETCHELKLIIDLIYQKGFAGMWNDVSNTAEYGGLTRRSRVINEQSRQEMRKILKEIQDGRFTKEWALENISGKAHLNSMRRIESELLIEEVGAKLRKMCGLQKD
notes: ketol-acid reductoisomerase (EC 1.1.1.86), class I, of Methanothermococcus thermolithotrophicus DSM 2095; native enzyme; model with Rossmann domain (2-183) and knot domain (184-330); stretch 47-53 is printed as LRPNGAS; Native protein without tags, identified by MALDI-TOF-MS; The crystals held NADP and Mg2+ (close state) or NADP and tartrate (open state); also called MtKARI; KARI; source: …

Key:
MtKARI = biological target: T1, MtKARI (Methanothermococcus thermolithotrophicus, UniProt A0A8X6EH16); experiment: X-ray crystallography; assay type: binding; conditions: open state, 2.2 A; crystal soaked with 50 mM L-tartrate, 20 mM NADP, 50 mM MgCl2; Mg2+-free, pH 6.5; substrate analogue at the nicotinamide site
T1 construct: gene ilvC; native full-length class I enzyme purified from M. thermolithotrophicus, no tag; modelled residues 2-330 (Rossmann 2-183, knot 184-330); dodecamer 438 kDa
T1 sequence (A0A8X6EH16 1-330): B1 chain

[1] = biological target: the molecule itself; experiment: native gel or EMSA; hrCN-PAGE, 5 to 15% gradient gel, 2 ug enriched MtKARI; cathode buffer with 0.05% sodium deoxycholate and 0.01% dodecyl maltoside, pH 7

Row | Molecule | X-ray crystallography (MtKARI) | stoichiometry N [1]
1 | O=C(O)[C@H](O)[C@@H](O)C(=O)O [L-tartrate] | tartrate takes the vacant position of the nicotinamide group of NADPH and is loosely bound | 
2 | B1 |  | 12
